Laboratory results reported in article PMC3070799 (Neuropharmacology, 2011).

Key:
mouse 5-HT3A = molecular target: T1, mouse 5-HT3A (Mus musculus, UniProt P23979); assay: Granisetron competition binding
T1 construct: expressed in transfected cells
T1 sequence (P23979 24-483 isoform P23979-2 limits assumed): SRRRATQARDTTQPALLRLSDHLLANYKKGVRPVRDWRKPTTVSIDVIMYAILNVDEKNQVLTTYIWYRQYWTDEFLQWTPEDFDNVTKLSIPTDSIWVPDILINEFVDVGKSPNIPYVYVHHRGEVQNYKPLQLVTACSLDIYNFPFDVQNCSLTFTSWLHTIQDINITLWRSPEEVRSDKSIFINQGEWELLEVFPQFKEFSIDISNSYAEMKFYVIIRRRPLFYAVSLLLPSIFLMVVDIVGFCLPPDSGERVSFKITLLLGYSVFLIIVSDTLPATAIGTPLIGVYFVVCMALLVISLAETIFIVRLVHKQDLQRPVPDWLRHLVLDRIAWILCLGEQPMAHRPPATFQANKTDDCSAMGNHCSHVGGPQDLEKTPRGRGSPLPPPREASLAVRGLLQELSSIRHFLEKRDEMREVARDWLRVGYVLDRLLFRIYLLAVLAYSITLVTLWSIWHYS
Description: Competition binding (8 point) was performed on at least three separate plates of transfected cells. […] Reactions were incubated for at least 1 h at 4 °C and terminated by vacuum filtration using a Brandel cell harvester onto GF/B filters pre-soaked in 0.3% polyethyleneimine. Radioactivity was determined by scintillation counting using a Beckman BCLS6500 (Fullerton, California, USA). Data were analysed by iterative curve fitting (GraphPad Prism v3.02) according to the equation:(5) BL=Bmin+Bmax−Bmin/1+10^nH(logL50−logL) where L is the concentration of ligand present; BL is the binding in the presence of ligand concentration L; Bmin is the binding when L = 0; Bmax is the binding when L = ∞, L50 is the concentration of L which gives a binding equal to (Bmax + Bmin)/2; and nH is the Hill coefficient. Results are presented as mean ± S.E.M.. Statistical analysis was performed using ANOVA in conjunction with a Dunnett’s post-hoc test.

human 5-HT3AB receptors = molecular target: T2, human 5-HT3AB receptors (Homo sapiens, UniProt O95264+P46098); assay: Two-electrode voltage clamp of 5-HT-induced currents in Xenopus oocytes; assay type: cell-based; conditions: for IC50 at heteromers (5-HT3AB) relative to 5-HT3A: 5-HT3AB versus 5-HT3A; for IC50: oocytes; for Hill slope: concentration-inhibition curve, 28 μM 5-HT
T2 construct: expressed in transfected cells; host or cells: Xenopus laevis oocytes (cRNA from pGEMHE)
T2 sequence (P46098 24-478): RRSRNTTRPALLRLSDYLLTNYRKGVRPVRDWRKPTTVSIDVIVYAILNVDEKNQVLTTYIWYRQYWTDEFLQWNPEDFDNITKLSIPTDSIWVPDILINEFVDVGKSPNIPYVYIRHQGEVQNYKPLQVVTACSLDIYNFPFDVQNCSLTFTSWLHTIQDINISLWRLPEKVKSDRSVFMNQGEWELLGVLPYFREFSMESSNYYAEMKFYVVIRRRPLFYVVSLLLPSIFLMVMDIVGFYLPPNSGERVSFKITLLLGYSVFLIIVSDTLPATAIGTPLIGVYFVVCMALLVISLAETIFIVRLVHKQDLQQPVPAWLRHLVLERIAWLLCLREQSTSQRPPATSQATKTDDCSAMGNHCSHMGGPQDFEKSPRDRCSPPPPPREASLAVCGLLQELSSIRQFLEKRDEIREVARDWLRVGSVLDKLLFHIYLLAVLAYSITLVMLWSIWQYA
T2 sequence (O95264 22-441): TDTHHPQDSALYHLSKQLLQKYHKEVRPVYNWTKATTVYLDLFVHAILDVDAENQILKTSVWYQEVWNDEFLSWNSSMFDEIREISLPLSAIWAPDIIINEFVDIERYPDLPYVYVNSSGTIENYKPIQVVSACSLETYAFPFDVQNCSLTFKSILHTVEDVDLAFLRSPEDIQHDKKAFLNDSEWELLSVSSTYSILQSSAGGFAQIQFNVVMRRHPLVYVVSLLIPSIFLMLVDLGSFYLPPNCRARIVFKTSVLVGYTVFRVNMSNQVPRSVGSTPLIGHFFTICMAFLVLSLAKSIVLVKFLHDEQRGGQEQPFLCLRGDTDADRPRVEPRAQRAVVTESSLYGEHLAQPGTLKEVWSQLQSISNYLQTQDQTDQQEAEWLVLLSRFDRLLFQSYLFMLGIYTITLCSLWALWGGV
Description: Stage V and VI oocytes were injected with 50 nl of ∼300 ng μl^−1 cRNA, and currents were recorded 1–4 days post-injection. A ratio of 1:3 (A:B) was used for the expression of heteromeric 5-HT3 receptors.
Xenopus laevis oocyte positive females were purchased from NASCO (Fort Atkinson, Wisconsin, USA) and maintained according to standard methods.
Currents were filtered at a frequency of 1 kHz. Micro-electrodes were fabricated from borosilicate glass (GC120TF-10, Harvard Apparatus, Edenbridge, Kent, UK) using a two stage horizontal pull (P-87, Sutter Instrument Company, California, USA) and filled with 3 M KCl. […] Oocytes were perfused with saline at a rate of 15 ml min^−1. Drug application was via a simple gravity fed system calibrated to run at the same rate. Extracellular saline contained (mM), 96 NaCl, 2 KCl, 1 MgCl2 and 5 mM HEPES; adjusted to pH 7.4 with NaOH.
Analysis and curve fitting was performed using Prism V3.02 (GraphPad Software, San Diego, California, USA, www.graphpad.com). Concentration-response data for each oocyte was normalised to the maximum current for that oocyte. For inhibition curves, antagonists were routinely co-applied in the presence of agonist. For PXN, oocytes were also pre-treated with the compound for 20 s. A 2 min wash was used between drug applications. The mean and S.E.M. for a series of oocytes was plotted against agonist or antagonist concentration and iteratively fitted (GraphPad Prism v3.02) to the following Hill equation:(1) IA=Imin+Imax−Imin/1+10^nH(logA50−logA) where A is the concentration of ligand present; IA is the current in the presence of ligand concentration A; Imin is the current when A = 0; Imax is the current when A = ∞ , A50 is the concentration of A which evokes a current equal to (Imax + Imin)/2; and nH is the Hill coefficient. Results are presented as mean ± S.E.M.. Statistical analysis was performed using ANOVA in conjunction with a Dunnett’s post-hoc test.

[1] = IC50, inhibition of 5-HT EC50 response (28 μM 5-HT)
[2] = pIC50, inhibition of 5-HT EC50 response (28 μM 5-HT)

Compound | Displacement of granisetron (0.5 nM) (mouse 5-HT3A; compound 2.5 mM) | IC50 at heteromers (5-HT3AB) relative to 5-HT3A (human 5-HT3AB receptors) | IC50 (human 5-HT3AB receptors; [1]) | Hill slope (human 5-HT3AB receptors) | IC50 (human 5-HT3AB receptors; [2]) | Displacement of granisetron (0.5 nM) (mouse 5-HT3A; compound 5 mM)
CC(C)(C)[C@]1(O)CC2OC(=O)CC23C(=O)OC2OC(=O)[C@H](O)C231 (stereo partly shown) [BB, bilobalide] | not displaced | ~6 fold | 3200 µM | 0.75 ± 0.13 | 3160 µM | –
ginkgolide B [GB] | not displaced | ~6 fold | – | 0.52 ± 0.14 | – | –
C=C(C)[C@@H]1[C@H]2OC(=O)[C@@H]1[C@]1(O)C[C@H]3O[C@]34C(=O)O[C@H]2[C@]14C [PXN, picrotoxinin] | – | ~6 fold | 62 µM | 0.68 ± 0.10 | 63.1 µM | not displaced
